In paper PMC5743070 (The Journal of Biological Chemistry, 2017):
pKd: −log10 of the molar value. Like-named read-outs stand apart in the source and are kept apart here.

Columns and labels:
[1] = biological target: T1, TTD–PHD (UHRF1_126–366) (Homo sapiens, UniProt Q96T88); test: (1H-15N) TROSY NMR titration of TTD–PHD; assay type: binding
T1 construct: His tag (TEV-cleavable) (N); made in house
T1 sequence (Q96T88 126-366): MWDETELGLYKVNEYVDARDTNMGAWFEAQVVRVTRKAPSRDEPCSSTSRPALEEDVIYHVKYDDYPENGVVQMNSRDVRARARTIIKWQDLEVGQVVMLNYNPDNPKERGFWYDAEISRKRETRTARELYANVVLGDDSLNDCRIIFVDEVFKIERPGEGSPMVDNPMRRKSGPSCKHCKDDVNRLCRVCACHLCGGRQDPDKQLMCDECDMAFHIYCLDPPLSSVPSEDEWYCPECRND
Method: Exchange broadening is clearly observed for Arg^282, Gly^284, Asp^291, Asn^292, Met^294, and Ser^301 amide resonances at 1:3 protein/BPC ratios, with perturbations also seen with Gly^286 and Gly^299 (Fig. 4 and supplemental Fig. S6).
(§1) NMR samples were buffered in 20 mM sodium phosphate (pH 7.5), 150 mM NaCl, 5 mM DTT, 5 mM β-mercaptoethanol, 2 mM TCEP, and 10 μM ZnSO4. The protein concentration was between 200 and 300 μM for all samples. The data were collected at 25 °C on Bruker spectrometers equipped with cryoprobes and operating at 500, 600, or 800 MHz. The assignment of backbone TTD–PHD resonances was accomplished using the ABACUS method ([29]) for which standard backbone and ^15N-edited NOESY spectra were collected using ^15N/^13C/^2H- or ^15N/^13C-labeled protein. All 3D experiments were acquired using non-uniform sampling and processed using the software MDDGUI ([30]) or qMDD ([31]). ^15N-Labeled TTD–PHD was used to acquire ^15N T1 and T2 relaxation and ^1H-^15N heteronuclear NOE measurements ([32]) collected using standard Bruker pulse schemes in an interleaved manner. For T1 measurements, the variable delay was set to 0.1, 0.4, 0.8, 1.5, 2.0, 2.5, 3.5, and 5 s. For T2 measurements, the variable delay was set to 16, 32, 48, 64, 80, 96, 128, and 144 ms. The D1 was 3 s for all experiments. Reported values were the average from two measurements. All spectra were processed using NMRPipe ([33]) and analyzed with SPARKY ([34]).

[2] = biological target: T2, TTD (UHRF1_121–286) (Homo sapiens, UniProt Q96T88); test: (1H-15N) HSQC NMR titration of TTD; assay type: binding; settings: for pKd: HSQC titration, ~250 μM TTD, 5% DMSO, pH 7.5, 25 °C
T2 construct: UHRF1_121–286 corresponding to the TTD; made in house
T2 sequence (Q96T88 121-286): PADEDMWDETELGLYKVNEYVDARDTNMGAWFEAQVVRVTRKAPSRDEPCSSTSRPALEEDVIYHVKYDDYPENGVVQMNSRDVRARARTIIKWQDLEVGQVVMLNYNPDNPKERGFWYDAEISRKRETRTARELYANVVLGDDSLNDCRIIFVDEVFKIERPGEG
Description: We designed a fragment library containing 2,040 compounds that was initially screened against isolated TTD (UHRF1_121–286) using a fluorescence polarization (FP) assay that tracked the displacement of a N-terminally tagged H3K9me3 peptide (H3K9me3(1–25)). From this screen, eight putative TTD-binding hits were identified. […] Because of limited commercial availability of the tricyclic amine, we focused only on BPC. The binding of this compound occurs close to (or within) the Arg^296-binding pocket; we observe significant perturbation of Trp^238 and Phe^278 resonances that form part of the pocket, and in Gly^236, which is directly adjacent to it (Fig. 4A and supplemental Fig. S5). We also see chemical shift changes in non-surface exposed residues that are close to or are in contact with the groove.
as §1
Figure S5 (related to Fig. 4)
Binding of BPC in the groove of TTD. […]
labeled (at the N-terminus) H3K9me3(1-25) peptide, (B) ITC, and (C) DSF. (D) KD estimates of BPC bind-ing based on I211 and Y239 amide peak movement (where Δ(ppm) = ((ΔδHN)2 + (ΔδN/6.5)2 )1⁄2) in (1H-15N) HSQC spectra when the TTD is titrated with BPC. […]
as a function of TTD sequence resulting from BPC (blue) or PBR peptide (red) binding. (F) HSQC overlays […]
ment:protein), and PBR peptide ratios (bottom spectrum - from 1:1 to 5:1 peptide:protein). The protein con-centration was ~250 µM for all NMR experiments, and the DMSO concentration was 5% for NMR titrations […]
(1 picture or pasted object on this page, not shown here)

effect on TTD–PHD conformation ([1]; Fig. 4): promote open TTD–PHD conformations
binding site on TTD by amide peak movement ([2]; (1H-15N) HSQC spectra of TTD): occurs in the groove
pKd ([2]; residue I211, read-out: KD estimate from I211 amide peak movement): 4.11
pKd ([2]; residue Y239, read-out: KD estimate from Y239 amide peak movement): 4.12
Compound: N=C(N)N1CCC(Cc2ccccc2)CC1 [BPC, 4-benzylpiperidine-1-carboximidamide]
effect on linker resonances of TTD–PHD ([1]; (1H-15N) TROSY, ~250 μM protein/750 μM ligand): significant conformational broadening and/or movement of amide peaks
